According to PubChem BioAssay AID1745844 (Carcinogenic Potency Database (CPDB), 2022):
“And” between values parts separate entries of the source, which are not always exact repeats. Identical values can stand only once. The source made the active and inactive calls. The rule behind the calls is not given here.

Test system: rodent lifetime carcinogenesis bioassay, tumor incidence TD50
Experiment: chronic cancer bioassays in animals – CPDB, compiled studies (AID 1745844)

Compound: ClC1=C(Cl)C2(Cl)C3C(Cl)C(Cl)CC3C1(Cl)C2(Cl)Cl (stereo not given)
- TD50 (mouse, strain B6C3F1, females, in feed, site: any site (literature study), lesion: several types, types named in the paper, dosed 80 weeks, study length 90 weeks): 5.16 mg/kg/day
- TD50 (mouse, strain B6C3F1, females, in feed, site: liver, lesion: hepatocellular adenoma + hepatocellular carcinoma + neoplastic nodule, dosed 80 weeks, study length 90 weeks): 4.89 mg/kg/day
- TD50 (mouse, strain B6C3F1, females, in feed, site: liver, lesion: hepatocellular carcinoma, dosed 80 weeks, study length 89 weeks): 5.28 mg/kg/day
- TD50 (mouse, strain B6C3F1, females, in feed, site: liver, lesion: hepatocellular carcinoma, dosed 80 weeks, study length 90 weeks): 4.89 mg/kg/day
- TD50 (mouse, strain B6C3F1, females, in feed, site: lung, lesion: alveolar/bronchiolar adenoma + alveolar/bronchiolar carcinoma, dosed 80 weeks, study length 90 weeks): 228 mg/kg/day
- TD50 (mouse, strain B6C3F1, males, in feed, site: any site (literature study), lesion: several types, types named in the paper, dosed 80 weeks, study length 90 weeks): 2.31 mg/kg/day
- TD50 (mouse, strain B6C3F1, males, in feed, site: liver, lesion: hepatocellular adenoma + hepatocellular carcinoma + neoplastic nodule, dosed 80 weeks, study length 90 weeks): 2.15 mg/kg/day
- TD50 (mouse, strain B6C3F1, males, in feed, site: liver, lesion: hepatocellular adenoma, dosed 60 weeks, study length 61 weeks): 0.903 mg/kg/day
- carcinogen call (mouse, strain B6C3F1, males, in feed, site: liver, lesion: hepatocellular adenoma, dosed 60 weeks, study length 68 weeks): positive
- TD50 (mouse, strain B6C3F1, males, in feed, site: liver, lesion: hepatocellular adenoma, dosed 60 weeks, study length 72 weeks): 0.727 mg/kg/day
- carcinogen call (mouse, strain B6C3F1, males, in feed, site: liver, lesion: hepatocellular adenoma, dosed 68 weeks, study length 68 weeks): positive
- TD50 (mouse, strain B6C3F1, males, in feed, site: liver, lesion: hepatocellular adenoma, dosed 72 weeks, study length 72 weeks): 1.96 mg/kg/day
- TD50 (mouse, strain B6C3F1, males, in feed, site: liver, lesion: hepatocellular carcinoma, dosed 60 weeks, study length 61 weeks): 1.91 mg/kg/day
- TD50 (mouse, strain B6C3F1, males, in feed, site: liver, lesion: hepatocellular carcinoma, dosed 60 weeks, study length 68 weeks): 1.49 mg/kg/day
- TD50 (mouse, strain B6C3F1, males, in feed, site: liver, lesion: hepatocellular carcinoma, dosed 60 weeks, study length 72 weeks): 2.67 mg/kg/day
- TD50 (mouse, strain B6C3F1, males, in feed, site: liver, lesion: hepatocellular carcinoma, dosed 68 weeks, study length 68 weeks): 0.878 mg/kg/day
- TD50 (mouse, strain B6C3F1, males, in feed, site: liver, lesion: hepatocellular carcinoma, dosed 72 weeks, study length 72 weeks): 2.96 mg/kg/day
- TD50 (mouse, strain B6C3F1, males, in feed, site: liver, lesion: hepatocellular carcinoma, dosed 80 weeks, study length 89 weeks): 2.48 mg/kg/day
- TD50 (mouse, strain B6C3F1, males, in feed, site: liver, lesion: hepatocellular carcinoma, dosed 80 weeks, study length 90 weeks): 2.15 mg/kg/day
- TD50 (mouse, strain B6C3F1, males, in feed, site: liver, lesion: several types, types named in the paper, dosed 60 weeks, study length 61 weeks): 0.583 mg/kg/day
- carcinogen call (mouse, strain B6C3F1, males, in feed, site: liver, lesion: several types, types named in the paper, dosed 60 weeks, study length 68 weeks): positive
- carcinogen call (mouse, strain B6C3F1, males, in feed, site: liver, lesion: several types, types named in the paper, dosed 68 weeks, study length 68 weeks): positive
- TD50 (mouse, strain B6C3F1, males, in feed, site: liver, lesion: several types, types named in the paper, dosed 72 weeks, study length 72 weeks): 1.68 mg/kg/day
- TD50 (mouse, strain B6C3F1, males, in feed, site: lung, lesion: alveolar/bronchiolar adenoma + alveolar/bronchiolar carcinoma, dosed 80 weeks, study length 90 weeks): 656 mg/kg/day
- TD50 (mouse, strain C57BL/10J, males, in feed, site: liver, lesion: several types, types named in the paper, dosed 104 weeks, study length 104 weeks): 13.1 mg/kg/day
- TD50 (mouse, strain Charles River CD1, females, in feed, site: liver, lesion: hepatoma, dosed 78 weeks, study length 78 weeks): 71.8 mg/kg/day
- TD50 (mouse, strain Charles River CD1, females, in feed, site: liver, lesion: nodular hyperplasia, dosed 78 weeks, study length 78 weeks): 1.78 mg/kg/day
- TD50 (mouse, strain Charles River CD1, males, in feed, site: liver, lesion: nodular hyperplasia, dosed 78 weeks, study length 78 weeks): 1.45 mg/kg/day
- TD50 (mouse, strain D2B6F1 mice, males, in feed, site: liver, lesion: hepatocellular adenoma, dosed 60 weeks, study length 61 weeks): 2.33 mg/kg/day
- TD50 (mouse, strain D2B6F1 mice, males, in feed, site: liver, lesion: hepatocellular adenoma, dosed 69 weeks, study length 69 weeks): 1.29 mg/kg/day
- TD50 (mouse, strain D2B6F1 mice, males, in feed, site: liver, lesion: hepatocellular adenoma, dosed 87 weeks, study length 87 weeks): 4.98 mg/kg/day
- TD50 (mouse, strain D2B6F1 mice, males, in feed, site: liver, lesion: hepatocellular carcinoma, dosed 60 weeks, study length 61 weeks): 6.09 mg/kg/day
- TD50 (mouse, strain D2B6F1 mice, males, in feed, site: liver, lesion: hepatocellular carcinoma, dosed 69 weeks, study length 69 weeks): 3.31 mg/kg/day
- TD50 (mouse, strain D2B6F1 mice, males, in feed, site: liver, lesion: hepatocellular carcinoma, dosed 87 weeks, study length 87 weeks): 5.21 mg/kg/day
- TD50 (mouse, strain D2B6F1 mice, males, in feed, site: liver, lesion: several types, types named in the paper, dosed 60 weeks, study length 61 weeks): 1.93 mg/kg/day
- TD50 (mouse, strain D2B6F1 mice, males, in feed, site: liver, lesion: several types, types named in the paper, dosed 69 weeks, study length 69 weeks): 1.03 mg/kg/day
- TD50 (mouse, strain D2B6F1 mice, males, in feed, site: liver, lesion: several types, types named in the paper, dosed 87 weeks, study length 87 weeks): 3.83 mg/kg/day
- TD50 (mouse, strain ICR, females, in feed, site: liver, lesion: hepatocellular adenoma, dosed 106 weeks, study length 106 weeks): 19.3 mg/kg/day
- TD50 (mouse, strain ICR, females, in feed, site: liver, lesion: hepatocellular carcinoma, dosed 106 weeks, study length 106 weeks): 60 mg/kg/day
- TD50 (mouse, strain ICR, females, in feed, site: liver, lesion: several types, types named in the paper, dosed 106 weeks, study length 106 weeks): 13.4 mg/kg/day
- TD50 (mouse, strain ICR, males, in feed, site: all sites, lesion: hemangioma, dosed 106 weeks, study length 106 weeks): 4.01 mg/kg/day
- TD50 (mouse, strain ICR, males, in feed, site: liver, lesion: hepatocellular adenoma, dosed 106 weeks, study length 106 weeks): 2.98 mg/kg/day
- TD50 (mouse, strain ICR, males, in feed, site: liver, lesion: hepatocellular carcinoma, dosed 106 weeks, study length 106 weeks): 7.38 mg/kg/day
- TD50 (mouse, strain ICR, males, in feed, site: liver, lesion: several types, types named in the paper, dosed 106 weeks, study length 106 weeks): 1.71 mg/kg/day
- TD50 (rat, strain Fischer 344, females, in feed, site: mammary gland, lesion: fibroadenoma, dosed 130 weeks, study length 130 weeks): 0.32 mg/kg/day
- TD50 (rat, strain Fischer 344, males, in feed, site: liver, lesion: hepatocellular adenoma, dosed 130 weeks, study length 130 weeks): 15.3 mg/kg/day
- TD50 (rat, strain Osborne-Mendel, females, in feed, site: any site (literature study), lesion: several types, types named in the paper, dosed 80 weeks, study length 109 weeks): 18.4 mg/kg/day (inactive)
- TD50 (rat, strain Osborne-Mendel, females, in feed, site: liver, lesion: hepatocellular adenoma + hepatocellular carcinoma + neoplastic nodule, dosed 80 weeks, study length 109 weeks): 121 mg/kg/day
- TD50 (rat, strain Osborne-Mendel, females, in feed, site: uterus, lesion: adenocarcinoma + sarcoma, dosed 80 weeks, study length 109 weeks): 101 mg/kg/day (inactive)
- TD50 (rat, strain Osborne-Mendel, males, in feed, site: all sites, lesion: fibrous histiocytoma, dosed 80 weeks, study length 109 weeks): 42.5 mg/kg/day and 60.4 mg/kg/day (inactive)
- TD50 (rat, strain Osborne-Mendel, males, in feed, site: any site (literature study), lesion: several types, types named in the paper, dosed 80 weeks, study length 109 weeks): 21.6 mg/kg/day
- TD50 (rat, strain Osborne-Mendel, males, in feed, site: thyroid gland, lesion: follicular-cell adenoma + follicular-cell carcinoma, dosed 80 weeks, study length 109 weeks): 41.6 mg/kg/day (inactive)

Compound: CC(=O)OC/C=C(C)/C=C/C=C(C)/C=C/C1=C(C)CCCC1(C)C
- TD50 (rat, strain F344/DuCrj, females, in drinking water, site: adrenal medulla, lesion: pheochromocytoma, malignant, dosed 104 weeks, study length 108 weeks): 7340 mg/kg/day
- TD50 (rat, strain F344/DuCrj, females, in drinking water, site: adrenal medulla, lesion: pheochromocytoma, dosed 104 weeks, study length 108 weeks): 227 mg/kg/day
- TD50 (rat, strain F344/DuCrj, females, in drinking water, site: liver, lesion: neoplastic nodule, dosed 104 weeks, study length 108 weeks): 7340 mg/kg/day
- TD50 (rat, strain F344/DuCrj, males, in drinking water, site: adrenal medulla, lesion: pheochromocytoma, malignant, dosed 104 weeks, study length 108 weeks): 552 mg/kg/day
- TD50 (rat, strain F344/DuCrj, males, in drinking water, site: adrenal medulla, lesion: pheochromocytoma, dosed 104 weeks, study length 108 weeks): 86.4 mg/kg/day
- carcinogen call (rat, strain F344/DuCrj, males, in drinking water, site: forestomach, lesion: neoplasm, dosed 52 weeks, study length 52 weeks): negative (inactive)
- TD50 (rat, strain F344/DuCrj, males, in drinking water, site: liver, lesion: cholangioma, dosed 104 weeks, study length 108 weeks): 6470 mg/kg/day
- TD50 (rat, strain F344/DuCrj, males, in drinking water, site: liver, lesion: neoplastic nodule, dosed 104 weeks, study length 108 weeks): 2060 mg/kg/day
- TD50 (rat, strain F344/DuCrj, males, in drinking water, site: liver, lesion: several types, types named in the paper, dosed 104 weeks, study length 108 weeks): 3670 mg/kg/day
- TD50 (rat, strain F344/DuCrj, males, in drinking water, site: spleen, lesion: mononuclear-cell leukemia, dosed 104 weeks, study length 108 weeks): 548 mg/kg/day
- TD50 (rat, strain F344/DuCrj, males, in drinking water, site: thyroid gland, lesion: c-cell adenoma, dosed 104 weeks, study length 108 weeks): 671 mg/kg/day
- TD50 (rat, strain F344/DuCrj, males, in drinking water, site: thyroid gland, lesion: several types, types named in the paper, dosed 104 weeks, study length 108 weeks): 976 mg/kg/day

Compound: COc1c(Cl)c(Cl)c(Cl)c(Cl)c1Cl
- TD50 (mouse, strain B6C3F1, females, by gavage, site: any site (literature study), lesion: several types, types named in the paper, dosed 103 weeks, study length 104 weeks): 47.5 mg/kg/day (inactive)
- TD50 (mouse, strain B6C3F1, females, by gavage, site: liver, lesion: hepatocellular adenoma + hepatocellular carcinoma + neoplastic nodule, dosed 103 weeks, study length 104 weeks): 63 mg/kg/day
- TD50 (mouse, strain B6C3F1, females, by gavage, site: lung, lesion: alveolar/bronchiolar adenoma + alveolar/bronchiolar carcinoma, dosed 103 weeks, study length 104 weeks): 776 mg/kg/day
- TD50 (mouse, strain B6C3F1, males, by gavage, site: adrenal medulla + liver, lesion: pheochromocytoma, benign + hemangiosarcoma, dosed 103 weeks, study length 104 weeks): 38.3 mg/kg/day
- TD50 (mouse, strain B6C3F1, males, by gavage, site: adrenal medulla, lesion: pheochromocytoma, benign, dosed 103 weeks, study length 104 weeks): 77.4 mg/kg/day
- TD50 (mouse, strain B6C3F1, males, by gavage, site: any site (literature study), lesion: several types, types named in the paper, dosed 103 weeks, study length 104 weeks): 40.2 mg/kg/day
- TD50 (mouse, strain B6C3F1, males, by gavage, site: liver, lesion: hemangiosarcoma, dosed 103 weeks, study length 104 weeks): 68 mg/kg/day
- TD50 (rat, strain Fischer 344, females, by gavage, site: adrenal medulla, lesion: pheochromocytoma, benign, dosed 103 weeks, study length 104 weeks): 174 mg/kg/day
- TD50 (rat, strain Fischer 344, females, by gavage, site: liver, lesion: hepatocellular adenoma + hepatocellular carcinoma + neoplastic nodule, dosed 103 weeks, study length 104 weeks): 1180 mg/kg/day
- TD50 (rat, strain Fischer 344, males, by gavage, site: adrenal medulla, lesion: pheochromocytoma, benign, dosed 103 weeks, study length 104 weeks): 24.8 mg/kg/day
- TD50 (rat, strain Fischer 344, males, by gavage, site: adrenal medulla, lesion: pheochromocytoma, malignant + pheochromocytoma, benign, dosed 103 weeks, study length 104 weeks): 30 mg/kg/day
- TD50 (rat, strain Fischer 344, males, by gavage, site: liver, lesion: hepatocellular adenoma + hepatocellular carcinoma + neoplastic nodule, dosed 103 weeks, study length 104 weeks): 6460 mg/kg/day

Compound: c1ccc2c(c1)ccc1cc3c(ccc4ccccc43)cc12
- TD50 (mouse, strain DBA/2, males, in drinking water, site: lung, lesion: alveolar-cell carcinoma, dosed 60 weeks, study length 60 weeks): 5.88 mg/kg/day

Compound: ClCOCC(COCCl)OCCl
- TD50 (mouse, strain Ha/ICR, females, i.p., site: abdomen, lesion: sarcoma, dosed 76 weeks, study length 76 weeks): 3.44 mg/kg/day

Compound: O=[N+]([O-])c1ccc2c(c1)Cc1ccccc1-2
- TD50 (rat, strain Wistar, males, in feed, site: forestomach, lesion: several types, types named in the paper, dosed 47 weeks, study length 104 weeks): 0.285 mg/kg/day
- TD50 (rat, strain Wistar, males, in feed, site: forestomach, lesion: squamous-cell carcinoma, dosed 47 weeks, study length 104 weeks): 1.12 mg/kg/day
- TD50 (rat, strain Wistar, males, in feed, site: kidney, lesion: cortical carcinoma, dosed 47 weeks, study length 104 weeks): 2.35 mg/kg/day
- TD50 (rat, strain Wistar, males, in feed, site: kidney, lesion: several types, types named in the paper, dosed 47 weeks, study length 104 weeks): 3 mg/kg/day
- TD50 (rat, strain Wistar, males, in feed, site: liver, lesion: hepatocellular carcinoma, dosed 47 weeks, study length 104 weeks): 2.1 mg/kg/day

Compound: CC1=C2C(=CO[C@H](C)[C@H]2C)C(=O)C(C(=O)O)=C1O
- carcinogen call (rat, strain Fischer 344, males, in feed, site: kidney, lesion: clear-cell adenoma, dosed 60 weeks, study length 60 weeks): positive
- carcinogen call (rat, strain Fischer 344, males, in feed, site: kidney, lesion: clear-cell adenoma, dosed 80 weeks, study length 80 weeks): positive
